# Experiments:
# [1] = system: cultured cortical astrocytes; assay: Intracellular cAMP levels in cultured astrocytes; assay type: cell-based; details: 1-hour treatment, 0.1 to 10 µM, particularly at 1 μM and 10 μM
# astrocytes = assay: Lysosomal pH detection (DND-189 fluorescence); assay type: cell-based; details: 10 μM AMX with 100 nM BafA1
# [2] = system: primary hippocampal neurons; assay: Scratch injury: lysosomal zinc (FluoZin-3 / LysoTracker); assay type: cell-based, rat; details: scratched neurons, 24 hours after scratch
# Experimental: (§1) Primary hippocampal neurons were obtained from embryonic day 18 (E18) Sprague-Dawley rat embryos. Pregnant rats were anesthetized using 2-3% isoflurane in a gas mixture of 70% nitrous oxide and 30% oxygen. Following euthanasia, the hippocampi were carefully dissected, minced, and enzymatically dissociated using TrypLE Express (Gibco, NY, USA) for 10 minutes at 37°C. The tissue was further mechanically dissociated using fire-polished glass pipettes, and the resulting cell suspension was filtered through a 70 μm cell strainer to remove debris. Neurons were seeded at a density of 3 × 10^5 cells per well in 24-well plates pre-coated with poly-L-lysine (Sigma-Aldrich, Saint Louis, MO, USA). Cells were maintained in neurobasal medium supplemented with B-27 (Thermo Fisher Scientific, Waltham, MA, USA), GlutaMAX (Gibco), and penicillin-streptomycin. The cultures were incubated at 37.5°C in a humidified atmosphere containing 5% CO₂. After seven days of growth, neurons were fixed with 4% paraformaldehyde (PFA) for 15 minutes at room temperature and subsequently stored at 4°C until their further use for immunostaining.
# (§2) A scratch injury model was used to mimic TBI in vitro. […] After the treatment period, neuronal damage and recovery were assessed using appropriate evaluation methods.
# [3] = system: primary hippocampal neurons; assay: Scratch injury: cell viability analysis; assay type: cell-based, rat; details: scratched neurons, 24 hours post-scratch, 10 μM AMX
# Experimental: as §1, with “After seven days of growth, neurons were fixed with 4% paraformaldehyde (PFA) for 15 minutes at room temperature and subsequently stored at 4°C until their further use for immunostaining.” left out
# as §2
# […] After incubation, absorbance was measured at 450 nm using a microplate reader (Spectramax, Molecular Devices Co., CA, USA). […]
# hippocampus of TBI rats [4] = assay: Controlled cortical impact TBI: hippocampal cAMP ELISA; assay type: in vivo; details: rat, 3 hours post-TBI, AMX 100 mg/kg i.p.
# Experimental: (§3) This study used male Sprague-Dawley rats weighing 300-350 g and aged 8 weeks, obtained from DBL Co. (Chungcheongbuk-do, Republic of Korea). The rats were housed in a controlled environment with a temperature of 20 ± 2 °C, a relative humidity of 55 ± 5%, and a 12-hour light/dark cycle. They were provided ad libitum access to food and water. To minimize stress associated with transportation, animals underwent a one-week acclimatization period before the start of the experiments. All experimental procedures were conducted in compliance with the guidelines of the National Institutes of Health for the care and use of laboratory animals and were approved by the Hallym University Institutional Animal Care and Use Committee (protocol # Hallym 2022-23, approved on July 15, 2022). This manuscript follows the principles outlined in the Animal research: reporting in vivo experiments (ARRIVE) guidelines.
# A controlled cortical impact (CCI) model was used to induce TBI in rats. Animals were anesthetized with 1-1.5% isoflurane in a 30:70 oxygen-to-nitrous oxide mixture and securely positioned in a stereotaxic frame. A 3 mm craniotomy was performed using a portable drill at a site 2.8 mm lateral to the midline and 3.0 mm posterior to Bregma. […]
# hippocampus of TBI rats [5] = assay: Controlled cortical impact TBI: Fluoro-Jade B neuronal death; assay type: in vivo, rat; details: ipsilateral CA1, CA3, GCL, hilus, 24 hours post-TBI, vs TBI-vehicle
# Experimental: as §3
# A controlled cortical impact (CCI) model was used to induce TBI in rats. […]
# Neuronal death was assessed 24 hours after TBI via Fluoro-Jade B (FJB) staining, a method designed for detecting degenerating neurons. […] FJB-positive cells were quantified in hippocampal subregions, including CA1 (Cornu Ammonis 1), CA3 (Cornu Ammonis 3), GCL (granule cell layer), and the hilus.
# TBI rats = assay: Controlled cortical impact TBI: Morris water maze; assay type: in vivo, rat; details: vs TBI-vehicle
# Experimental: as §3
# A controlled cortical impact (CCI) model was used to induce TBI in rats. Animals were anesthetized with 1-1.5% isoflurane in a 30:70 oxygen-to-nitrous oxide mixture and securely positioned in a stereotaxic frame. A 3 mm craniotomy was performed using a portable drill at a site 2.8 mm lateral to the midline and 3.0 mm posterior to Bregma. TBI was induced using an Impact One™ Stereotaxic Impactor (Leica Biosystems) equipped with a 3 mm flat-tip, set to deliver an impact at a velocity of 5 m/s and a depth of 3 mm. Throughout the procedure, body temperature was maintained at 36-37.5°C using a homeothermic blanket system to prevent hypothermia. […] At designated time points (3 hours, 24 hours, or 2 weeks post-injury), animals were euthanized via transcardial perfusion with saline, followed by 4% paraformaldehyde (PFA). Brains were post-fixed in 4% PFA for 1 hour, cryoprotected in 30% sucrose, and sectioned at a 30 μm thickness using a cryostat microtome (CM1850; Leica, Wetzlar, Germany). Brain sections were stored in cryoprotectant solution at 4°C until further analysis.
# The MWM is a well-established behavioral test used to assess cognitive function in rodents. […] The following parameters were recorded during the training sessions: 1) escape latency (time taken to reach the platform), 2) distance traveled to locate the platform, and 3) the number of target crossings (times the platform location was crossed). […] The time spent in the target quadrant (where the platform had been located during training) and the number of crossings over the platform location were recorded. Behavioral data, including escape latency, distance traveled, target crossings, and time spent in the target quadrant, were tracked and analyzed using smart video-tracking software (Panlab, Carrer de l'Energia, Spain).
# [6] = system: activated microglia and astrocytes (Iba1, GFAP); details: post-seizure AMX treatment; cited from earlier work
smiles,measurement,setting,value
"CC(C)c1ccc2oc3nc(N)c(C(=O)O)cc3c(=O)c2c1 [AMX, amlexanox]",intracellular cAMP levels,[1],significantly increased intracellular cAMP levels
same,"lysosomal pH (DND-189 fluorescence), reversal of BafA1 effect",astrocytes,effectively reversed BafA1-induced alkalization
same,lysosomal zinc levels (FluoZin-3 / LysoTracker),[2],restored lysosomal zinc levels to near-normal levels
same,cell viability,[3],substantially improved cell viability
same,hippocampal cAMP levels (ELISA),hippocampus of TBI rats [4],restored cAMP levels to values comparable to sham controls
same,number of FJB-positive degenerating neurons,hippocampus of TBI rats [5],significantly reduced the number of FJB-positive degenerating neurons
same,MWM distance to the hidden platform,TBI rats; days 8-12 post-TBI,reduced target distances
same,MWM escape latency,TBI rats; days 8-12 post-TBI,shorter escape latency
same,MWM platform crossings,TBI rats; probe trial,more frequent platform crossings
same,MWM time spent in the target quadrant,TBI rats; probe trial,increased time spent in the target quadrant
same,"activated microglia and astrocytes (Iba1, GFAP)",[6],markedly decreased activated microglia and astrocytes
